Measurements: US3989835A, “Method of using 6-substituted amino phenyl-2,3,5,6-tetra-hydro[2,1-b]thiazoles for controlling gastrointestinal nematodes” (American Cyanamid Company, priority 1974, dated 1976)
Counter-ions that a name gives are not always drawn. Like-named read-outs stand apart in the source and are kept apart here.

What was measured:
in vivo [1] = settings: for Approx. LD50 /ED50: chemotherapeutic index, mouse oral, N. dubius; for LD50: mouse, in vivo, po; for Dead/Total: mice
Description: Data on the acute oral toxicity to mice of various single oral doses of the above compounds and several analogs were obtained by conventional procedures, (Table IX hereinafter).

in vivo [2] = settings: dog
Description: (§1) Dogs infected with mature adult whipworms Trichuris vulpis were treated with various single or double doses of unsubstituted or substituted tetramisole analogs by the oral or subcutaneous route (Table XI hereinafter). Whipworms passed in the feces were collected for several days, and the whipworms still present determined at necropsy. Percent efficacy was determined in these "critical" tests. […] Trichuris is a type of nematode refactory to treatment with most prior anthelmintics at well tolerated doses. Taxonomically allied nematodes, e.g., Trichinella and Capillaria are also refractory to most anthelmintics.

Nematospiroides dubius = experiment: Anthelmintic efficacy against N. dubius in mice, single oral dose; format: in vivo, Nematospiroides dubius (in albino female mice); settings: for inhibition in vivo at 2 mg/kg: single oral dose 2.0 mg./Kg.; for inhibition in vivo at 20 mg/kg: single oral dose 20 mg./Kg.; for inhibition in vivo at 1.25 mg/kg: single oral dose 1.25 mg./Kg.; for inhibition in vivo at 7.5 mg/kg: single oral dose 7.5 mg./Kg.; for inhibition in vivo at 40 mg/kg: single oral dose 40 mg./Kg.
Description: Albino female mice are each inoculated with about 20 infectious larvae of Nematospiroides dubius. This nematode is a representative of the economical important trichostrongylis worms of ruminants and other hosts, and of nematodes in general. Twenty-two days after inoculation, groups of four randomly selected mice containing adult N. dubius are given single oral doses of test compounds dissolved or suspended in 0.4 ml. of water per 20 gram mouse. At 26 or 27 days after inoculation, treated mice and in each test four randomly selected groups of untreated mice are necropsied. The number of worms in the small intestine of each mouse are determined by microscopic examination. Average worm numbers for each treated group and for the untreated controls are computed and the percent efficacy determined by the customary formula:
(Average Worms in Control - Average Worms in Treated)/(Average Worms in Control) X 100.

Trichuris vulpis = experiment: Oral or subcutaneous activity vs. mature Trichuris vulpis in dogs (critical test); format: in vivo
Description: as §1

[3] = Approx. LD50, mouse oral, Table IX
[4] = Heligmosomoides polygyrus, po, as Base, single oral dose, mice, > indicates inactive at dose shown, read-out: Approx. ED50
[5] = Heligmosomoides polygyrus, po, mouse oral, Table IX, read-out: Approx. ED50 vs. N. dubius
[6] = Heligmosomoides polygyrus, po, molar-adjusted, read-out: Percent Nematospiroides Activity
[7] = Heligmosomoides polygyrus, po, single oral dose 10 mg./Kg., molar-adjusted, read-out: Percent Nematospiroides Activity
[8] = LD50, mice, adjusted to molar equivalents of tetramisole free base
[9] = Heligmosomoides polygyrus, po, single oral dose 5.0 mg./Kg., molar-adjusted, read-out: Percent Nematospiroides Activity

For CNc1cccc(C2CN3CCSC3=N2)c1.Cl.Cl (stereo not drawn) [m-NH--CH3 dl, 2,3,5,6-Tetrahydro-6-(m-methylaminophenyl)imidazo[2,1-b]thiazole Dihydrochloride], the “Approx. LD50 /ED50” value (in vivo [1]; Table IX) was 14, the LD50 (in vivo [1]; [3]) was 100 mg/kg and the Dead/Total (in vivo [1]; single oral dose 20 Mg./Kg.) was 0/4. The Dead/Total (in vivo [1]; single oral dose 50 Mg./Kg.) was 0/4, the Dead/Total (in vivo [1]; single oral dose 100 Mg./Kg.) was 2/5 and the MTD (in vivo [2]; po) was greater than 10 mg/kg. It also gave an MTD (in vivo [2]; sc) of 30 mg/kg, an ED50 (Nematospiroides dubius; [4]) of 7 mg/kg and an ED50 (Nematospiroides dubius; [5]) of 7 mg/kg. For the same compound, the inhibition in vivo at 2 mg/kg (Nematospiroides dubius; [6]) was 28%, the inhibition in vivo at 10 mg/kg (Nematospiroides dubius; [7]) was 66% and the inhibition in vivo at 20 mg/kg (Nematospiroides dubius; [6]) was 100%. The inhibition in vivo at 30 mg/kg (Nematospiroides dubius; Heligmosomoides polygyrus, po, single oral dose 30 mg./Kg., molar-adjusted, read-out: Percent Nematospiroides Activity) was 100%, the “% Efficacy SC” value (Trichuris vulpis; SC 2.5 Mg./Kg.) was 29% and the “% Efficacy SC” value (Trichuris vulpis; SC 5 Mg./Kg.) was 94%. The “% Efficacy Orally” value (Trichuris vulpis; oral 5 Mg./Kg., based on total worms in all dogs) was 100%.
CC(=O)Nc1cccc(C2CN3CCSC3=N2)c1 (stereo not drawn) [m-NH--CO--CH3 dl, 3'-(2,3,5,6-Tetrahydroimidazo[2,1-b]thiazol-6-yl)acetanilide] showed an LD50 (in vivo [1]; [3]) greater than 10 mg/kg, an ED50 (Nematospiroides dubius; [4]) of 4 mg/kg and an ED50 (Nematospiroides dubius; [5]) of 3 to 4 mg/kg.
In the case of CC(C)C(=O)Nc1cccc(C2CN3CCSC3=N2)c1.Cl (stereo not drawn) [m-NH--CO--CH(CH3)2 dl, 3'-(2,3,5,6-tetrahydroimidazo[2,1-b]thiazol-6-yl)isobutyranilide hydrochloride], the “Approx. LD50 /ED50” value (in vivo [1]; Table IX) was 20, the LD50 (in vivo [1]; [3]) was roughly 60 mg/kg and the LD50 (in vivo [1]; [8]) was roughly 75 mg/kg. The Dead/Total (in vivo [1]; single oral dose 40 Mg./Kg.) was 1/6, the Dead/Total (in vivo [1]; single oral dose 80 Mg./Kg.) was 5/6 and the Dead/Total (in vivo [1]; single oral dose 120 Mg./Kg.) was 6/6. It also gave an ED50 (Nematospiroides dubius; [4]) of 3 mg/kg, an ED50 (Nematospiroides dubius; [5]) of 3 mg/kg and an inhibition in vivo at 5 mg/kg (Nematospiroides dubius; [9]) of 99%. It also gave an inhibition in vivo at 10 mg/kg (Nematospiroides dubius; [7]) of 100% and an inhibition in vivo at 20 mg/kg (Nematospiroides dubius; [6]) of 100%.
For CC(C)C(=O)Nc1cccc(C2CN3CCSC3=N2)c1 (stereo not shown) [m-NH--CO--CH(CH3)2 l], the “Approx. LD50 /ED50” value (in vivo [1]; Table IX) was 50, the LD50 (in vivo [1]; [3]) was 50 mg/kg and the LD50 (in vivo [1]; [8]) was 60 to 75 mg/kg. The Dead/Total (in vivo [1]; single oral dose 50 Mg./Kg.) was 2/8, the Dead/Total (in vivo [1]; single oral dose 100 Mg./Kg.) was 8/8 and the ED50 (Nematospiroides dubius; [4]) was 1 mg/kg. The ED50 (Nematospiroides dubius; [5]) was 1 mg/kg, the inhibition in vivo at 0.625 mg/kg (Nematospiroides dubius; Heligmosomoides polygyrus, po, single oral dose 0.625 mg./Kg., adjusted to molar equivalents of tetramisole free base, read-out: Percent Nematospiroides Activity) was 30% and the inhibition in vivo at 1.25 mg/kg (Nematospiroides dubius; [6]) was 77%. For the same compound, the inhibition in vivo at 2 mg/kg (Nematospiroides dubius; [6]) was 96%, the inhibition in vivo at 7.5 mg/kg (Nematospiroides dubius; [6]) was 97% and the “Percent Nematospiroides Activity” value (Nematospiroides dubius; single oral dose 5.0 mg./Kg., molar-adjusted) was 100%. The “Percent Nematospiroides Activity” value (Nematospiroides dubius; single oral dose 10 mg./Kg., molar-adjusted) was 100%.
For CC(C)Nc1cccc(C2CN3CCSC3=N2)c1 (stereo not drawn) [m-NH-CH(CH3)2 dl, 6-(m-isopropylaminophenyl)-2,3,5,6-tetrahydroimidazo[2,1-b]thiazole], the “Approx. LD50 /ED50” value (in vivo [1]; Table IX) was 8, the LD50 (in vivo [1]; [3]) was roughly 40 mg/kg and the LD50 (in vivo [1]; [8]) was roughly 50 mg/kg. The Dead/Total (in vivo [1]; single oral dose 40 Mg./Kg.) was 2/6, the Dead/Total (in vivo [1]; single oral dose 60 Mg./Kg.) was 3/6 and the Dead/Total (in vivo [1]; single oral dose 80 Mg./Kg.) was 4/6. The Dead/Total (in vivo [1]; single oral dose 100 Mg./Kg.) was 5/6, the ED50 (Nematospiroides dubius; [4]) was 5 mg/kg and the ED50 (Nematospiroides dubius; [5]) was 5 mg/kg. It also gave an inhibition in vivo at 5 mg/kg (Nematospiroides dubius; [9]) of 55%, an inhibition in vivo at 7.5 mg/kg (Nematospiroides dubius; [6]) of 89% and an inhibition in vivo at 10 mg/kg (Nematospiroides dubius; [7]) of 100%. The inhibition in vivo at 20 mg/kg (Nematospiroides dubius; [6]) was 100% and the inhibition in vivo at 40 mg/kg (Nematospiroides dubius; [6]) was 100%.
For COC(=O)Nc1cccc(C2CN3CCSC3=N2)c1 (stereo not drawn) [m-NH-CO--OCH3 l, l-m-(2,3,5,6-tetrahydroimidazo[2,1-b]thiazol-6-yl)carbanilicacid methyl ester, hydrochloride], the “Approx. LD50 /ED50” value (in vivo [1]; Table IX) was 20, the LD50 (in vivo [1]; [3]) was roughly 150 mg/kg and the LD50 (in vivo [1]; [8]) was roughly 125 mg/kg. For the same compound, the Dead/Total (in vivo [1]; single oral dose 50 Mg./Kg.) was 0/5, the Dead/Total (in vivo [1]; single oral dose 100 Mg./Kg.) was 0/5 and the Dead/Total (in vivo [1]; single oral dose 150 Mg./Kg.) was 1/5. For the same compound, the Dead/Total (in vivo [1]; single oral dose 200 Mg./Kg.) was 5/5, the ED50 (Nematospiroides dubius; [4]) was 7.5 mg/kg and the ED50 (Nematospiroides dubius; [5]) was 7.5 mg/kg. The inhibition in vivo at 5 mg/kg (Nematospiroides dubius; [9]) was 28%, the inhibition in vivo at 10 mg/kg (Nematospiroides dubius; [7]) was 61% and the inhibition in vivo at 20 mg/kg (Nematospiroides dubius; [6]) was 100%. The inhibition in vivo at 40 mg/kg (Nematospiroides dubius; [6]) was 100%.
With CC(C)(C)C(=O)Nc1cccc(C2CN3CCSC3=N2)c1 (stereo not shown) [m-NH-CO-C(CH3)2 l] the “Approx. LD50 /ED50” value (in vivo [1]; Table IX) was 100, the LD50 (in vivo [1]; [3]) was 100 mg/kg and the LD50 (in vivo [1]; [8]) was roughly 100 mg/kg. For the same compound, the Dead/Total (in vivo [1]; single oral dose 50 Mg./Kg.) was 0/6, the Dead/Total (in vivo [1]; single oral dose 100 Mg./Kg.) was 2/6 and the Dead/Total (in vivo [1]; single oral dose 200 Mg./Kg.) was 6/6. It also gave an ED50 (Nematospiroides dubius; [4]) of 1 mg/kg, an ED50 (Nematospiroides dubius; [5]) of 1 mg/kg and an inhibition in vivo at 1.25 mg/kg (Nematospiroides dubius; [6]) of 60%. It also gave an inhibition in vivo at 2 mg/kg (Nematospiroides dubius; [6]) of 69%, an inhibition in vivo at 5 mg/kg (Nematospiroides dubius; [9]) of 90% and an inhibition in vivo at 10 mg/kg (Nematospiroides dubius; [7]) of 100%.
